Measurements as given in patent US10626112B2, “Heterocyclic sulfonamide derivative and medicine comprising same” (EA PHARMA CO., LTD., priority 2014, dated 2020).

Tests used:
human TRPA1 [1] = target: T1, human TRPA1 (Homo sapiens (Human), UniProt O75762); assay: Measurement of TRPA1 antagonist activity (1): intracellular calcium increase; type: cell-based; conditions: 293T cells transfected with human TRPA1 expression plasmid; allylisothiocyanate 20 μM stimulation; intracellular calcium fluorescence; read-out: hTRPA1 IC50
Outline: (§1)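 HEK293T cells transiently transfected with full-length human TRPA1, loaded with Calcium4 dye in HBSS/20 mM HEPES pH 7.2. Test compound preincubated 10 min, then allylisothiocyanate added at 20 μM final and fluorescence change followed for 5 min. IC50 from sigmoid fit of percent inhibition relative to agonist and buffer controls.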

human TRPA1 [2] = target: T1, human TRPA1; assay: Measurement of TRPA1 antagonist activity (2): as (1), different lot of human TRPA1 expression plasmid; type: cell-based; conditions: 293T cells transfected with human TRPA1, allylisothiocyanate 20 μM stimulation, calcium fluorescence, read-out: hTRPA1 IC50
Outline: as §1, with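 “with” for “with full-length”, “TRPA1 plasmid (different lot),” for “TRPA1,”, “read” for “followed”, “of” for “of percent”, “AITC-alone” for “agonist”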

T1 sequence (O75762 whole entry): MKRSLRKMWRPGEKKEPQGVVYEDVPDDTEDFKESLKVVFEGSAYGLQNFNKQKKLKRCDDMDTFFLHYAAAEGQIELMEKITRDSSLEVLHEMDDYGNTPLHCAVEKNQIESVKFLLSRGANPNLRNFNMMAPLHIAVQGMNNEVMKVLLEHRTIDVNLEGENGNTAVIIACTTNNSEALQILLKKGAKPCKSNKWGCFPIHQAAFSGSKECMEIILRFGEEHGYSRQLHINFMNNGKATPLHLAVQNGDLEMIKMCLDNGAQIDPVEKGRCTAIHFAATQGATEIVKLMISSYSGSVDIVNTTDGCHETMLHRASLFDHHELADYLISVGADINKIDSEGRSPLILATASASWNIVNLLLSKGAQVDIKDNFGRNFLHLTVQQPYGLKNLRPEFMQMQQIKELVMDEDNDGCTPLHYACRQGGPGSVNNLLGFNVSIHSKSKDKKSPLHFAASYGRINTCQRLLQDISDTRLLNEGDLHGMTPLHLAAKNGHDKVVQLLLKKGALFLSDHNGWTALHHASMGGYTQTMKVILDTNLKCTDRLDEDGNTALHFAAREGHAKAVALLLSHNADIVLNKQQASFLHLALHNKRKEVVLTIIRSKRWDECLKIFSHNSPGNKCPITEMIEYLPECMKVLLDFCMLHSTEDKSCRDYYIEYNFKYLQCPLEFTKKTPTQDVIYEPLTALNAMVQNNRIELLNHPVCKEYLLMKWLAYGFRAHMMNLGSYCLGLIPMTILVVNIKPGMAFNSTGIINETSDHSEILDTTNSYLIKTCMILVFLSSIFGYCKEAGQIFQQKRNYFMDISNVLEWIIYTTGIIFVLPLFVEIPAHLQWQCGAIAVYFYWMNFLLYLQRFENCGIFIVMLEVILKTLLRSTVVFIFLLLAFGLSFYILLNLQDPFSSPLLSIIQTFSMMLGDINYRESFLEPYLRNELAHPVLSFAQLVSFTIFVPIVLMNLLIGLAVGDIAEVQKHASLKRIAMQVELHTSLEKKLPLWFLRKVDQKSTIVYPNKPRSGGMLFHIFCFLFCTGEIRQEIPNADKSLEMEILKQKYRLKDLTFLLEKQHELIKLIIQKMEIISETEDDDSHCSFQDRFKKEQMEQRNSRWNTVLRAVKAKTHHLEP

O=C(NCc1cncc(-c2ccc(C(F)(F)F)cn2)c1)[C@@H]1CCCN1S(=O)(=O)c1cc2ccccc2o1 [Example 87, (2S)-1-(benzofuran-2-ylsulfonyl)-N-[[5-[5-(trifluoromethyl)-2-pyridyl]-3-pyridyl]methyl]pyrrolidine-2-carboxamide] showed an IC50 (human TRPA1 [1]) of 26 nM and an IC50 (human TRPA1 [2]) of 52 nM.

CC(C)N(CC(=O)NCc1cc(-c2ccc(C(F)(F)F)cc2O)ncn1)S(=O)(=O)c1cc2cc(F)ccc2o1 [Example 413, 2-[(5-fluorobenzofuran-2-yl)sulfonyl-isopropyl-amino]-N-[[6-[2-hydroxy-4-(trifluoromethyl)phenyl]pyrimidin-4-yl]methyl]acetamide] gave an IC50 (human TRPA1 [2]) of 12 nM.

In the case of CN(C(C)(C)C(=O)NCc1cc(-c2ccc(C(F)(F)F)cn2)ccn1)S(=O)(=O)c1cc2cc(F)ccc2o1 [Example 340, 2-[(5-fluorobenzofuran-2-yl)sulfonyl-methyl-amino]-2-methyl-N-[[4-[5-(trifluoromethyl)-2-pyridyl]-2-pyridyl]methyl]propanamide], the IC50 (human TRPA1 [2]) is reported as 380 nM.

O=C(NCc1cc(-c2ccc(OC(F)(F)F)cc2)ncn1)[C@@H]1CCCN1S(=O)(=O)c1cc2cc(F)ccc2o1 [Example 406, (2S)-1-(5-fluorobenzofuran-2-yl)sulfonyl-N-[[6-[4-(trifluoromethoxy)phenyl]-pyrimidin-4-yl]methyl]pyrrolidine-2-carboxamide] showed an IC50 (human TRPA1 [2]) of 2.7 nM.

O=C(NCc1ccc(O)c(-c2ccc(C(F)(F)F)nn2)c1)[C@@H]1CCCN1S(=O)(=O)c1cc2ccccc2o1 [Example 380, (2S)-1-(benzofuran-2-ylsulfonyl)-N-[[4-hydroxy-3-[6-(trifluoromethyl)pyridazin-3-yl]phenyl]methyl]pyrrolidine-2-carboxamide] gave an IC50 (human TRPA1 [2]) of 3.1 nM.

Work on CCN([C@@H](C)C(=O)NCc1cc(-c2ccc(C(F)(F)F)cc2)ncn1)S(=O)(=O)c1cc2cc(F)ccc2o1 [Example 422, (2S)-2-[ethyl-(5-fluorobenzofuran-2-yl)sulfonyl-amino]-N-[[6-[4-(trifluoromethyl)phenyl]pyrimidin-4-yl]methyl]propanamide] yielded an IC50 (human TRPA1 [2]) of 3 nM.

Compound O=C(NCc1cc(-c2ccc(C(F)(F)F)nc2)ncn1)[C@@H]1CCN1S(=O)(=O)c1cc2ccccc2o1 [Example 408, (2S)-1-(benzofuran-2-ylsulfonyl)-N-[[6-[6-(trifluonomethyl)-3-pyridyl]pyrimidin-4-yl]methyl]azetidine-2-carboxamide] has an IC50 (human TRPA1 [2]) of 16 nM.

Compound O=C(NCc1cc(-c2ncc(C(F)(F)F)cn2)ccn1)[C@@H]1CCN1S(=O)(=O)c1cc2cc(F)ccc2o1 [Example 394, (2S)-1-(5-fluorobenzofuran-2-yl)sulfonyl-N-[[4-[5-(trifluoromethyl)pyrimidin-2-yl]-2-pyridyl]methyl]azetidine-2-carboxamide] has an IC50 (human TRPA1 [2]) of 11 nM.

O=C(NCc1cc(-c2ncc(C(F)(F)F)cn2)ccn1)[C@@H]1CCCN1S(=O)(=O)c1cc2cc(F)ccc2o1 [Example 407, (2S)-1(5-fluorobenzofuran-2-yl)sulfonyl-N-[[4-[5-(trifluoromethyl)pyrimidin-2-yl]-2-pyridyl]methyl]pyrrolidine-2-carboxamide] gave an IC50 (human TRPA1 [2]) of 7 nM.

O=C(NCc1ccnc(-c2ccc(C(F)(F)F)cc2O)c1)[C@@H]1CCN1S(=O)(=O)c1cc2cc(F)ccc2o1 [Example 383, (2S)-1-(5-fluorobenzofuran-2-yl)sulfonyl-N-[[2-[2-hydroxy-4-(trifluoromethyl)phenyl]-4-pyridyl]methyl]azetidine-2-carboxamide] gave an IC50 (human TRPA1 [2]) of 9.7 nM.

Work on CN(C)c1nc(CNC(=O)[C@@H]2CCN2S(=O)(=O)c2cc3cc(F)ccc3o2)cc(-c2ccc(C(F)(F)F)cc2O)n1 [Example 398, (2S)-N-[[2-(dimethylamino)-6-[2-hydroxy-4-(trifluoromethyl)phenyl]-pyrimidin-4-yl]methyl]-1-(5-fluorobenzofuran-2-yl)sulfonyl-azetidine-2-carboxamide] yielded an IC50 (human TRPA1 [2]) of 21 nM.

Work on CN(C)c1nc(CNC(=O)[C@@H]2CCN2S(=O)(=O)c2cc3ccccc3o2)cc(-c2ccc(C(F)(F)F)nc2)n1 [Example 410, (2S)-1-(benzofuran-2-ylsulfonyl)-N-[[2-(dimethylamino)-6-[6-(trifluoromethyl)-3-pyridyl]pyrimidin-4-yl]methyl]azetidine-2-carboxamide] yielded an IC50 (human TRPA1 [2]) of 38 nM.

Work on O=C(CN(CC1CC1)S(=O)(=O)c1cc2cc(F)ccc2o1)NCc1cc(-c2ccc(C(F)(F)F)cn2)ccn1 [Example 349, 2-[cyclopropylmethyl-(5-fluorobenzofuran-2-yl)sulfonyl-amino]-N-[[4-[5-(trifluoromethyl)-2-pyridyl]-2-pyridyl]methyl]acetamide] yielded an IC50 (human TRPA1 [2]) of 43 nM.

With O=C(NCc1cc(-c2ccc(C(F)(F)F)cn2)ccn1)[C@@H]1CCCN1S(=O)(=O)c1cc2ccncc2o1 [Example 346, (2S)-1-furo[2,3-c]pyridin-2-ylsulfonyl-N-[[4-[5-(trifluoromethyl)-2-pyridyl]-2-pyridyl]methyl]pyrrolidine-2-carboxamide] the IC50 (human TRPA1 [2]) was 700 nM.

Work on CN(C)c1nc(CNC(=O)[C@@H]2CCCN2S(=O)(=O)c2cc3cc(F)ccc3o2)cc(-c2ccc(C(F)(F)F)cc2)n1 [Example 378, (2S)-N-[[2-(dimethylamino)-6-[4-(trifluoromethyl)phenyl]-pyrimidin-4-yl]methyl]-1-(5-fluorobenzofuran-2-yl)sulfonyl-pyrrolidine-2-carboxamide] yielded an IC50 (human TRPA1 [2]) of 5.2 nM.

Work on CN(CC(=O)NCc1cc(-c2ccc(C(F)(F)F)cn2)ccn1)S(=O)(=O)c1cc2cc(F)ccc2o1 [Example 339, 2-[(5-fluorobenzofuran-2-yl)sulfonyl-methyl-amino]-N-[[4-[5-(trifluoromethyl)-2-pyridyl]-2-pyridyl]methyl]acetamide] yielded an IC50 (human TRPA1 [2]) of 11 nM.

Compound CC(C)N(CC(=O)NCc1cc(-c2ccc(C(F)(F)F)nc2)ncn1)S(=O)(=O)c1cc2cc(F)ccc2o1 [Example 359, 2-[(5-fluorobenzofuran-2-yl)sulfonyl-isopropyl-amino]-N-[[6-[6-(trifluoromethyl)-3-pyridyl]pyrimidin-4-yl]methyl]acetamide] has an IC50 (human TRPA1 [2]) of 7.9 nM.

O=C(NCc1ccnc(-c2cnc(C(F)(F)F)nc2)c1)[C@@H]1CCCN1S(=O)(=O)c1cc2cc(F)ccc2o1 [Example 402, (2S)-1-(5-fluorobenzofuran-2-yl)sulfonyl-N-[[2-[2-(trifluoromethyl)pyrimidin-5-yl]-4-pyridyl]methyl]pyrrolidine-2-carboxamide] was tested, and the IC50 (human TRPA1 [2]) was 3.5 nM.

Compound CN(C)c1nc(CNC(=O)[C@@H]2CCCN2S(=O)(=O)c2cc3ccccc3o2)cc(-c2ccc(C(F)(F)F)cc2O)n1 [Example 376, (2S)-1-(benzofuran-2-ylsulfonyl)-N-[[2-(dimethylamino)-6-[2-hydroxy-4-(trifluoromethyl)phenyl]-pyrimidin-4-yl]methyl]pyrrolidine-2-carboxamide] has an IC50 (human TRPA1 [2]) of 21 nM.

Compound O=C(NCc1ccnc(-c2ccc(C(F)F)cc2)c1)[C@@H]1CCCN1S(=O)(=O)c1cc2ccccc2o1 [Example 332, (2S)-1-(benzofuran-2-ylsulfonyl)-N-[[2-[4-(difluoromethyl)phenyl]-4-pyridyl]methyl]pyrrolidine-2-carboxamide] has an IC50 (human TRPA1 [2]) of 16 nM.

CC(C)N(CC(=O)NCc1cc(-c2ccc(C(F)(F)F)cc2)ncn1)S(=O)(=O)c1cc2cc(F)ccc2o1 [Example 420, 2-[(5-fluorobenzofuran-2-yl)sulfonyl-isopropyl-amino]-N-[[6-[4-(trifluoromethyl)phenyl]pyrimidin-4-yl]methyl]acetamide] showed an IC50 (human TRPA1 [2]) of 10 nM.

CCN(CC(=O)NCc1cc(-c2ccc(C(F)(F)F)cc2)ncn1)S(=O)(=O)c1cc2cc(F)ccc2o1 [Example 419, 2-[ethyl-(5-fluorobenzofuran-2-yl)sulfonyl-amino]-N-[[6-[4-(trifluoromethyl)phenyl]pyrimidin-4-yl]methyl]acetamide] was tested, and the IC50 (human TRPA1 [2]) was 4.1 nM.

In the case of C[C@H](NS(=O)(=O)c1cc2cc(F)ccc2o1)C(=O)NCc1ccc(O)c(-c2ccc(C(F)(F)F)nn2)c1 [Example 381], the IC50 (human TRPA1 [2]) is reported as 20 nM.

C[C@H](NS(=O)(=O)c1cc2cnccc2o1)C(=O)NCc1ccc(O)c(-c2ccc(C(F)(F)F)cn2)c1 [Example 373, (2S)-2-(furo[3,2-c]pyridin-2-ylsulfonylamino)-N-[[4-hydroxy-3-[5-(trifluoromethyl)-2-pyridyl]-phenyl]methyl]propanamide] gave an IC50 (human TRPA1 [2]) of 79 nM.

O=C(NCc1cc(-c2cnc(C(F)(F)F)nc2)ncn1)[C@@H]1CCN1S(=O)(=O)c1cc2ccccc2o1 [Example 409, (2S)-1-(benzofuran-2-ylsulfonyl)-N-[[6-[2-(trifluoromethyl)pyrimidin-5-yl]pyrimidin-4-yl]methyl]azetidine-2-carboxamide] showed an IC50 (human TRPA1 [2]) of 29 nM.

O=C(NCc1cc(-c2ccc(C(F)(F)F)cn2)cnn1)[C@@H]1CCN1S(=O)(=O)c1cc2cc(F)ccc2o1 [Example 391, (2S)-1-(5-fluorobenzofuran-2-yl)sulfonyl-N-[[5-[5-(trifluoromethyl)-2-pyridyl]pyridazin-3-yl]methyl]azetidine-2-carboxamide] gave an IC50 (human TRPA1 [2]) of 26 nM.

For O=C(NCc1cc(-c2ccc(C(F)(F)F)cc2)nc(N2CCCC2)n1)[C@@H]1CCCN1S(=O)(=O)c1cc2ccccc2o1 [Example 329, (2S)-1-(benzofuran-2-ylsulfonyl)-N-[[2-pyrrolidin-1-yl-6-[4-(trifluoromethyl)phenyl]pyrimidin-4-yl]methyl]pyrrolidine-2-carboxamide], the IC50 (human TRPA1 [2]) was 14 nM.

C[C@H](NS(=O)(=O)c1cc2cc(F)ccc2o1)C(=O)NCc1cc(-c2ccc(C(F)(F)F)nc2)nc(N(C)C)n1 [Example 372, (2S)-N-[[2-(dimethylamino)-6-[6-(trifluoromethyl)-3-pyridyl]pyrimidin-4-yl]methyl]-2-[(5-fluorobenzofuran-2-yl)sulfonylamino]propanamide] showed an IC50 (human TRPA1 [2]) of 27 nM.
